In PubChem BioAssay AID2060901 (Molecular Pharmacology Branch, DTP, NCI, 2025):
Values joined by “and” are separate entries in the source; they are usually repeats but may differ in a detail not shown here. Equal entries are not always repeated.

System: 422866-222-R5-J1-PDC complex spheroids viability
Assay: Anticancer human tumor 422866-222-R5-J1-PDC patient-derived pancreatic adenocarcinoma cell line growth inhibition [RAS]
Conditions: for viability, T/C: stronger effect = lower value
Procedure, shortened: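 Tumour cells grown as complex spheroids with HUVEC endothelial cells and mesenchymal stem cells, treated with RAS pathway inhibitor combinations. Each agent spans half-log steps from near clinical Cmax, or 10 microM where Cmax is unknown.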

[1] = curve of first compound, second compound 0.0316 µM
[2] = curve of first compound, second compound 0.1 µM
[3] = curve of first compound, second compound 0.316 µM
[4] = curve of first compound, second compound 1 µM
[5] = curve of first compound, second compound 3.16 µM
[6] = curve of first compound, second compound 10 µM
[7] = second compound 0.0316 µM, first compound 0.00316 µM
[8] = second compound 0.0316 µM, first compound 0.01 µM
[9] = second compound 0.0316 µM, first compound 0.0316 µM
[10] = second compound 0.0316 µM, first compound 0.1 µM
[11] = second compound 0.0316 µM, first compound 0.316 µM
[12] = second compound 0.0316 µM, first compound 1 µM
[13] = second compound 0.1 µM, first compound 0.00316 µM
[14] = second compound 0.1 µM, first compound 0.01 µM
[15] = second compound 0.1 µM, first compound 0.0316 µM
[16] = second compound 0.1 µM, first compound 0.1 µM
[17] = second compound 0.1 µM, first compound 0.316 µM
[18] = second compound 0.1 µM, first compound 1 µM
[19] = second compound 0.316 µM, first compound 0.00316 µM
[20] = second compound 0.316 µM, first compound 0.01 µM
[21] = second compound 0.316 µM, first compound 0.0316 µM
[22] = second compound 0.316 µM, first compound 0.1 µM
[23] = second compound 0.316 µM, first compound 0.316 µM
[24] = second compound 0.316 µM, first compound 1 µM
[25] = second compound 1 µM, first compound 0.00316 µM
[26] = second compound 1 µM, first compound 0.01 µM
[27] = second compound 1 µM, first compound 0.0316 µM
[28] = second compound 1 µM, first compound 0.1 µM
[29] = second compound 1 µM, first compound 0.316 µM
[30] = second compound 1 µM, first compound 1 µM
[31] = second compound 3.16 µM, first compound 0.0316 µM
[32] = second compound 3.16 µM, first compound 0.1 µM
[33] = second compound 3.16 µM, first compound 0.316 µM
[34] = second compound 3.16 µM, first compound 1 µM
[35] = second compound 10 µM, first compound 0.0316 µM
[36] = second compound 10 µM, first compound 0.1 µM
[37] = second compound 10 µM, first compound 0.316 µM
[38] = second compound 10 µM, first compound 1 µM
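Note: spheroids exposed to compounds for 7 days.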
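Throughout, for viability, T/C: 100% = DMSO vehicle control viability.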

## C=CC(=O)N1CCN(c2nc(OCC3CCCN3C)nc3c(F)c(-c4nc(N)cc(C)c4C(F)(F)F)c(Cl)cc23)C(C)C1 (stereo not drawn) + C#Cc1c(F)ccc2cc(O)cc(-c3ncc4c(N5CC6CCC(C5)N6)nc(OCC56CCCN5CC(F)C6)nc4c3F)c12
[1]
  IC50: < 3.16 nM
[2]
  IC50: < 3.16 nM
[3]
  IC50: < 3.16 nM
[4]
  IC50: < 3.16 nM
[5]
  IC50: < 3.16 nM
[6]
  IC50: < 3.16 nM
[7]
  viability, T/C: 29.7%
[8]
  viability, T/C: 24%
[9]
  viability, T/C: 21.9%
[10]
  viability, T/C: 19.4%
[11]
  viability, T/C: 19%
[12]
  viability, T/C: 22%
[13]
  viability, T/C: 28.4%
[14]
  viability, T/C: 24.6%
[15]
  viability, T/C: 21.2%
[16]
  viability, T/C: 18.6%
[17]
  viability, T/C: 20.9%
[18]
  viability, T/C: 21.3%
[19]
  viability, T/C: 29.6%
[20]
  viability, T/C: 24.6%
[21]
  viability, T/C: 25.7%
[22]
  viability, T/C: 19.2%
[23]
  viability, T/C: 21%
[24]
  viability, T/C: 21%
[25]
  viability, T/C: 20.5%
[26]
  viability, T/C: 21.4%
[27]
  viability, T/C: 21.7%
[28]
  viability, T/C: 19.8%
[29]
  viability, T/C: 18.8%
[30]
  viability, T/C: 17.5%
Second compound 3.16 µM, first compound 0.00316 µM
  viability, T/C: 21.6%
Second compound 3.16 µM, first compound 0.01 µM
  viability, T/C: 18.1%
[31]
  viability, T/C: 21%
[32]
  viability, T/C: 22.5%
[33]
  viability, T/C: 19%
[34]
  viability, T/C: 22.6%
Second compound 10 µM, first compound 0.00316 µM
  viability, T/C: 17.9%
Second compound 10 µM, first compound 0.01 µM
  viability, T/C: 20.3%
[35]
  viability, T/C: 20.8%
[36]
  viability, T/C: 17.5%
[37]
  viability, T/C: 20.7%
[38]
  viability, T/C: 17.6%

## CC1(O)CCCC1n1c(=O)c(C(F)F)cc2cnc(NC3CCN(S(C)(=O)=O)CC3)nc21 (stereo not drawn) + C#Cc1c(F)ccc2cc(O)cc(-c3ncc4c(N5CC6CCC(C5)N6)nc(OCC56CCCN5CC(F)C6)nc4c3F)c12
[1]
  IC50: 7570 nM
[2]
  IC50: 8440 nM
[3]
  IC50: > 10000 nM
[4]
  IC50: < 31.6 nM
[5]
  IC50: < 31.6 nM
[6]
  IC50: < 31.6 nM
[9]
  viability, T/C: 73.3%
[10]
  viability, T/C: 79.7%
[11]
  viability, T/C: 87.4%
[12]
  viability, T/C: 75.5%
Second compound 0.0316 µM, first compound 3.16 µM
  viability, T/C: 69.4%
Second compound 0.0316 µM, first compound 10 µM
  viability, T/C: 43.5%
[15]
  viability, T/C: 85%
[16]
  viability, T/C: 69.9%
[17]
  viability, T/C: 72.5%
[18]
  viability, T/C: 78.8%
Second compound 0.1 µM, first compound 3.16 µM
  viability, T/C: 73%
Second compound 0.1 µM, first compound 10 µM
  viability, T/C: 46%
[21]
  viability, T/C: 67.3%
[22]
  viability, T/C: 67.5%
[23]
  viability, T/C: 64.5%
[24]
  viability, T/C: 62.5%
Second compound 0.316 µM, first compound 3.16 µM
  viability, T/C: 72.6%
Second compound 0.316 µM, first compound 10 µM
  viability, T/C: 41.6%
[27]
  viability, T/C: 55.4%
[28]
  viability, T/C: 43.7%
[29]
  viability, T/C: 42.2%
[30]
  viability, T/C: 60.8%
Second compound 1 µM, first compound 3.16 µM
  viability, T/C: 70.4%
Second compound 1 µM, first compound 10 µM
  viability, T/C: 43.3%
[31]
  viability, T/C: 29.6%
[32]
  viability, T/C: 27.6%
[33]
  viability, T/C: 31.6%
[34]
  viability, T/C: 31.9%
Second compound 3.16 µM, first compound 3.16 µM
  viability, T/C: 42.2%
Second compound 3.16 µM, first compound 10 µM
  viability, T/C: 32.3%
[35]
  viability, T/C: 21%
[36]
  viability, T/C: 21.5%
[37]
  viability, T/C: 25%
[38]
  viability, T/C: 29.3%
Second compound 10 µM, first compound 3.16 µM
  viability, T/C: 42.1%
Second compound 10 µM, first compound 10 µM
  viability, T/C: 36.5%

## Nc1ccn(C2OC(CO)C(O)C2(F)F)c(=O)n1 (stereo not drawn) + C=CC(=O)N1CCN(c2nc(OCC3CCCN3C)nc3c(F)c(-c4nc(N)cc(C)c4C(F)(F)F)c(Cl)cc23)C(C)C1
Curve of first compound, second compound 0.00316 µM
  IC50: < 3.16 nM
Curve of first compound, second compound 0.01 µM
  IC50: < 3.16 nM
[1]
  IC50: < 3.16 nM
[2]
  IC50: < 3.16 nM
[3]
  IC50: < 3.16 nM
[4]
  IC50: < 3.16 nM
Second compound 0.00316 µM, first compound 0.00316 µM
  viability, T/C: 25.5%
Second compound 0.00316 µM, first compound 0.01 µM
  viability, T/C: 26.6%
Second compound 0.00316 µM, first compound 0.0316 µM
  viability, T/C: 21.8%
Second compound 0.00316 µM, first compound 0.1 µM
  viability, T/C: 18.7%
Second compound 0.00316 µM, first compound 0.316 µM
  viability, T/C: 14.8%
Second compound 0.00316 µM, first compound 1 µM
  viability, T/C: 14.9%
Second compound 0.01 µM, first compound 0.00316 µM
  viability, T/C: 26.6%
Second compound 0.01 µM, first compound 0.01 µM
  viability, T/C: 22.7%
Second compound 0.01 µM, first compound 0.0316 µM
  viability, T/C: 21.7%
Second compound 0.01 µM, first compound 0.1 µM
  viability, T/C: 15.7%
Second compound 0.01 µM, first compound 0.316 µM
  viability, T/C: 15.3%
Second compound 0.01 µM, first compound 1 µM
  viability, T/C: 17%
[7]
  viability, T/C: 27.5%
[8]
  viability, T/C: 19.9%
[9]
  viability, T/C: 19.3%
[10]
  viability, T/C: 16.9%
[11]
  viability, T/C: 15.9%
[12]
  viability, T/C: 14.1%
[13]
  viability, T/C: 21.9%
[14]
  viability, T/C: 21.6%
[15]
  viability, T/C: 18.6%
[16]
  viability, T/C: 16.4%
[17]
  viability, T/C: 14.8%
[18]
  viability, T/C: 14.6%
[19]
  viability, T/C: 24.8%
[20]
  viability, T/C: 20.4%
[21]
  viability, T/C: 20%
[22]
  viability, T/C: 18.1%
[23]
  viability, T/C: 16.7%
[24]
  viability, T/C: 17.4%
[25]
  viability, T/C: 22.9%
[26]
  viability, T/C: 19.7%
[27]
  viability, T/C: 19%
[28]
  viability, T/C: 14.2%
[29]
  viability, T/C: 18%
[30]
  viability, T/C: 17.4%

## NC1c2ccccc2OC12CCN(c1cnc3c(N4CCCc5ncccc54)n[nH]c3n1)CC2 (stereo not drawn)
Compound 0.0316 µM
  viability, T/C: 51.6% [middle of 4 runs]
Compound 0.1 µM
  viability, T/C: 45.3% [middle of 4 runs]
Compound 0.316 µM
  viability, T/C: 40.2% [middle of 4 runs]
Compound 1 µM
  viability, T/C: 40% [middle of 4 runs]
Compound 3.16 µM
  viability, T/C: 36.7% [middle of 4 runs]
Compound 10 µM
  viability, T/C: 33.8% [middle of 4 runs]
Curve of compound
  IC50: 290 nM and < 31.6 nM
